Consider 23 compounds from patent US20210317113A1, “1,2,3-TRIAZOLE DERIVATIVES AND USES THEREOF” (Alxerion Biotech LLC, priority 2020, published 2021).

Like-named read-outs stand apart in the source and are kept apart here.

In experiment [1] the test system is Non-Small Lung Cancer Cells (NSLCs). Kind of experiment: Cancer migration (wound healing) assay. Format: cell-based. As to conditions: for concentration at which cell migration was completely impaired: 20 mM calcium medium (FIG. 3). An excerpt: The ability of 1,2,3-triazole derivatives according to the disclosure to inhibit cancer cell migration and proliferation in vitro can be measured, e.g., by a wound healing assay (Rodriguez et al., in Cell Migration: Developmental Methods and Protocols, Web et al., Guan ed. Humana Press 294, 23-29). This assay is based on the observation that, upon the creation of an artificial gap on a confluent cancer cell monolayer, the cells on the edge of the created gap will start migrating and proliferating until new cell-cell contacts are established (EXAMPLE 3).
Non-Small Lung Cancer Cells (NSLCs) migration rate was assessed in an in vitro wound healing assay. This assay is based on the observation that, upon the creation of an artificial gap on a confluent cell monolayer, the cells on the edge of the created gap will start migrating and proliferating until new cell-cell contacts are established.
A confluent cell layer is a prerequisite for starting this assay. Gap formation is done manually with a scrapper and cell proliferation and migration is determined recording a time-lapse video for 20 hr. with a time interval of 30 min. The microscopic pictures are manually analyzed for obtaining information about the proliferation and migration characteristics of the cultured cells and the image analysis detects the cell covered area.
NSLCs were cultured in Eagle's Minimum Essential Medium (ATCC-formulated medium, Catalog No. 30-2003) containing fetal bovine serum at 10% during several periods. Wound healing assays with supplemented medium containing 1,2,3-triazole derivatives were performed to evaluate the inhibitory effect on proliferation and migration of cancer cells.
In order to simulate as close as possible the in vivo cancer microenvironment, human plasma and calcium were added to the cell culture system to provide the hemostatic factors normally present in the cancer stroma. The previous day, cells were seeded with 10% FBS at a number that would provide 90% confluence the next day. On Day 0, a scratch (“a wound”) was performed in the middle of the well and the 10% FBS medium was replaced with 20% plasma, 20 mM calcium medium, with or without Derivative 1. 10% FBS medium was used as control in these experiments. “Wound healing” or closure of the scratch was assessed over a period of 4 days, and cell number in the wound area was quantified for each condition. Increasing amount of Derivative 1 (LTI6) was used to attain a dose-response curve.
The cell function effect of Derivative 1 was compared with Tranexamic Acid (TNA) and Caproic Acid (CA), commercially available and widely used anti-metastasis drugs.

For experiment [2] the test system is unchanged. Description: Trypan Blue Exclusion Test of cancer cell viability. Format: cell-based. Conditions: for IC50: defined in text as concentration of derivative causing greater than 90% of the cells to die, read-out: Anti-Cancer Activity (Trypan Blue Exclusion Assay) IC50. Here is the method: The ability of 1,2,3-triazole derivatives according to the disclosure to kill cancer cells can be measured, e.g., by Trypan Blue Exclusion Assay which measured cell death by starvation due to the presence of the derivative (see EXAMPLE 4). The results obtained using this assay with some representative 1,2,3-triazole derivatives according to the disclosure are shown below in Table 4.
The effect of Derivative 1 on cancer cell viability was determined using the Trypan Blue Exclusion Test (Stober (2001) (Curr. Protoc. Immunol., May; Appendix 3:Appendix 3B. doi: 10.1002/0471142735.ima03bs21). The viability of Non-Small Lung Cancer Cells (NSLCs) was assessed over a period of 15 days after the promotion of coagulation with or without 200 μM of 1,2,3-triazole derivative 1 and with or without 2% human plasma. Fresh 2% FBS medium corresponding to each condition was added every 3 days. Cell death was analyzed using Trypan blue staining. 2% FBS medium was used as control. Some representative results are shown in FIGS. 4A-4F.

The subject of experiment [3] is fibrinolysis mediated by tPA (plasminogen activation by tPA). Description: Fibrinolytic assay: one-step spectrophotometric clot lysis in human plasma. Format: biochemical. As to conditions: for IC50: concentration at which 50% of total fibrinolysis mediated by tPA is inhibited, human ACD plasma, clot triggered by TF, absorbance 340 nm, read-out: Anti-fibrinolytic (SERPIN) Activity IC50; for inhibition of fibrinolysis mediated by tPA (in words): different concentrations, FIGS. 2B-2D. Here is the method:
Fibrinolytic activity in human plasma was determined by a one-step spectrophotometric method (Gidron et al. (1978) J. Clin. Pathol. 31(1):54-57) with minor modifications (see EXAMPLE 2). In this method, fibrin clot formation in anticoagulant citrate dextrose (ACD) plasma samples obtained from healthy volunteers is triggered by tissue factor (TF) and can be quantified by spectrometry as a significant increase in basal plasma absorbance at 340 nm.
As shown in FIGS. 2A-2D, in the absence of tPA, plasma absorbance remains permanently elevated.
Fibrinolytic activity in human plasmas in the presence of derivatives according to the disclosure was determined by a one-step spectrophotometric method.
Fibrin clot formation in the anticoagulant acid citrate dextrose (ACD)-treated plasma obtained from healthy volunteers is triggered by tissue factor (TF) (Thromborel S, Siemens Healthineers) and quantifies by spectrophotometry at 340 nm (using a Molecular Devices SpectraMax® M2e Multimode Microplate Reader). When recombinant human Tissue Plasminogen Activator (tPA, final concentration of 5.2 μg/ml) is simultaneously added, fibrinolysis of the clot can be determined.
Fresh blood was extracted from healthy volunteers. ACD, to reach a 10% concentration, was instantly added to the extracted blood, to prevent any unwanted coagulation. After that, blood was centrifuged for 15 min at 1,000 g. Plasma was clearly separated from red blood cells. 3 mL aliquots of aspirated plasma were immediately frozen at −20° C.
4 mL of ddH2O was added to a vial of Thromborel S and mixed thoroughly for 2 min. and left at 4° C. 500 μL TF aliquots were used for each experiment.
Representative derivatives of the present disclosure (Nos. 1, 5, and 7) were diluted in DMSO (those with Boc) or ddH2O (those with HCl) to a final concentration of 10 mM. A solution containing 1 M Tris HCl, pH 7.5 (Fisher BioReagent) (Buffer A), 0.110 g of CaCl2) in 10 mL of ddH2O (Buffer B), and tPA (Abcam, 1.3 mg/mL added into the diluted derivative solution, final concentration in serum was 5.2 μg/mL), and the derivative was prepared in a total volume of 75 μL and added to untreated, flat, clear Costar® 96-well plates in triplicate. Absorbance at 340 nm at 37° C. for 30 min was recorded every 15 sec. The plates were shaken every 3 sec in between readings. Controls for basal plasma absorbance, basal coagulation absorbance and basal fibrinolytic activity absorbance were performed in every assay.
FIG. 2A show the results a control experiment displaying the ability of TF to cause fibrin clot formation in the absence and presence of t-PA. TF was able to cause fibrin clot formation evaluated as a significant increase of the basal plasma absorbance at 340 nm.

Where [4] appears, read: 96 h, NSLCs, 20% plasma, 20 mM calcium medium, wound closure over 4 days (FIG. 3), read-out: IC50 from dose response curve, cell migration.
The mark [5] stands for this setting: wound healing assay, dose-response curve, read-out: Anti-Cancer Activity (Inhibition of Cancer Cell Migration) IC50.

As for `CCCCCC(=O)O` [CA, Caproic Acid, reference compound], the IC50 in experiment [1] (96 h, read-out: IC50 from dose response curve, cell migration) was 1340 µM. The “concentration at which cell migration was completely impaired” value (“concentration” below) in experiment [1] (NSLCs, 20% plasma) was 1400 µM.

As for `O=c1[nH]nc(-c2cn(C3CCNCC3)nn2)o1` [Derivative 1], in experiment [2] (200 μM, plasma conditions, 7 days, vs plasma alone (FIG. 4C)), the “cell death by Trypan blue staining after 7 days (in words)” value is given as “even more significant”. Besides, in experiment [2] (200 μM, plasma conditions, 15 days, vs FBS and plasma alone (FIG. 4F)), the “cell death by Trypan blue staining after 15 days (in words)” value is listed as “increased cell death”. For the same compound, the IC50 came to 250 µM in experiment [2] (listed as 1), 50 µM in experiment [3] (listed as 1), 96.1 µM in experiment [1] (setting [4]) and 120 µM in experiment [1] (setting [5]). In experiment [3], the “inhibition of fibrinolysis mediated by tPA (in words)” value (“inhibition of fibrinolysis mediated” for short) is recorded as “completely inhibit fibrinolysis”. Further, the “concentration” value in experiment [1] (NSLCs, 20% plasma) stood at 100 µM. Moreover, in experiment [1] (from IC50 values, vs Caproic Acid), the “potency relative to CA in inhibition of migration of cancer cells” value is listed as greater than 10 ×. The “potency relative to TNA in inhibition of migration of cancer cells” value in experiment [1] (from IC50 values, vs Tranexamic Acid) is listed as greater than 4 ×.

As for `NCCCn1cc(-c2n[nH]c(=O)o2)nn1` [Derivative 2], the IC50 turned out to be 550 µM in experiment [2], 200 µM in experiment [3] and 350 µM in experiment [1] (setting [5]).

With `NNC(=O)c1cn(C2CCNCC2)nn1` [Derivative 3], the IC50 in experiment [2] was 410 µM; in experiment [3], 180 µM; in experiment [1] (setting [5]), 230 µM.

On to `NCCCn1cc(C(=O)NN)nn1` [Derivative 4], for which the IC50 is 2100 µM in experiment [2], 800 µM in experiment [3] and 1200 µM in experiment [1] (setting [5]).

As for `O=c1[nH]c(-c2cn(C3CCNCC3)nn2)no1` [Derivative 5], the IC50 in experiment [2] (listed as 5) was 150 µM; in experiment [3] (listed as 5), 35 µM; in experiment [1] (wound healing assay, dose-response curve, listed as 5, read-out: Anti-Cancer Activity (Inhibition of Cancer Cell Migration) IC50), 90 µM. For the same compound, the “inhibition of fibrinolysis mediated” value in experiment [3] is recorded as “completely inhibit fibrinolysis”.

`NCCCn1cc(-c2noc(=O)[nH]2)nn1` [Derivative 6]: the figures for the IC50 in experiment [2], in experiment [3] and in experiment [1] (setting [5]) were 800 µM, 375 µM and 650 µM, respectively.

As to `NC(NO)c1cn(C2CCNCC2)nn1` (stereo not shown) [Derivative 7], the IC50 came to 415 µM in experiment [2], 125 µM in experiment [3] and 270 µM in experiment [1] (setting [5]). Also, the “inhibition of fibrinolysis mediated” value in experiment [3] is “completely inhibit fibrinolysis”.

Turning to `NCCCn1cc(/C(N)=N/O)nn1` [Derivative 8], the IC50 was found to be 750 µM in experiment [2], 350 µM in experiment [3] and 500 µM in experiment [1] (setting [5]).

As to `N/C(Cc1cn(C2CCNCC2)nn1)=N/O` [Derivative 10], the IC50 in experiment [2] turned out to be 370 µM; in experiment [3], 150 µM; in experiment [1] (setting [5]), 250 µM.

For `NCCCn1cc(C/C(N)=N\O)nn1` [Derivative 11], the IC50 turned out to be 680 µM in experiment [2], 325 µM in experiment [3] and 510 µM in experiment [1] (setting [5]).

For `NCCCn1cc(C(=O)O)nn1` [Derivative 13], the IC50 came out at 170 µM in experiment [2], 75 µM in experiment [3] and 125 µM in experiment [1] (setting [5]).

As for `NCCCn1ccnn1` [Derivative 14], the IC50 in experiment [2] was 450 µM; in experiment [3], 130 µM; in experiment [1] (setting [5]), 250 µM.

With `NCCn1cc(C(=O)NN)nn1` [Derivative 15], the IC50 in experiment [2] came to 815 µM; in experiment [3], 24 µM; in experiment [1] (setting [5]), 104 µM.

Take `NNC(=O)c1cn(C2CCC(N)CC2)nn1` (stereo not shown) [Derivative 16]: the IC50 in experiment [2] amounted to 430 µM; in experiment [3] it was 58 µM; in experiment [1] (setting [5]), 250 µM.

Regarding `NC1CCC(n2cc(-c3n[nH]c(=O)o3)nn2)CC1` (stereo not shown) [Derivative 17], the IC50 in experiment [2] is 1350 µM; in experiment [3], 320 µM; in experiment [1] (setting [5]), 650 µM.

On to `NCCn1cc(-c2n[nH]c(=O)o2)nn1` [Derivative 18], for which the figures for the IC50 in experiment [2], in experiment [3] and in experiment [1] (setting [5]) were 550 µM, 250 µM and 345 µM, respectively.

For the compound `NC1CCC(n2cc(-c3noc(=O)[nH]3)nn2)CC1` (stereo not shown) [Derivative 19], the IC50 was determined as 880 µM in experiment [2], 375 µM in experiment [3] and 610 µM in experiment [1] (setting [5]).

For the compound `NCCn1cc(-c2noc(=O)[nH]2)nn1` [Derivative 20], the IC50 in experiment [2] came out at 210 µM; in experiment [3] it was 15 µM; in experiment [1] (setting [5]), 87 µM.

Turning to `O=C(O)c1nnc(-c2cn(C3CCNCC3)nn2)o1` [Derivative 21], the IC50 was 150 µM in experiment [2], 35 µM in experiment [3] and 100 µM in experiment [1] (setting [5]).

For the compound `NCCCn1cc(-c2nnc(C(=O)O)o2)nn1` [Derivative 22], the IC50 in experiment [2] came out at 210 µM; in experiment [3] it was 50 µM; in experiment [1] (setting [5]), 120 µM.

Regarding `NC1CCC(n2cc(-c3nnc(C(=O)O)o3)nn2)CC1` (stereo not shown) [Derivative 23], the IC50 is 210 µM in experiment [2], 35 µM in experiment [3] and 89 µM in experiment [1] (setting [5]).

In the case of `NC[C@H]1CC[C@H](C(=O)O)CC1` [TNA, Tranexamic Acid, reference compound], the IC50 in experiment [1] (setting [4]) was determined as 438 µM. For the same compound, the “concentration” value in experiment [1] (NSLCs, 20% plasma) came to 250 µM.
